Structures can show the parent of a compound that is named as a salt.
Experiments:
[1] = test system: pseudotyped VSV G particles (VSVpp) in Huh7-high CD81 cells; assay: microbe, parasite or virus in culture; assay type: cell-based, vesicular stomatitis virus; conditions: Vesicular stomatitis virus, 72 h, read-out: VSVpp (EC50, μM)
[2] = test system: Pseudotyped HCV GT1b particles (HCVpp), entry into Huh7-high CD81 cells; assay: microbe, parasite or virus in culture; assay type: cell-based, HCV GT1b Con1 strain; conditions: Hepatitis C virus, GT1B, 72 h, read-out: HCVpp GT-1b (EC50, μM)

Compound | EC50 [1] | EC50 [2]
CC(C)(C)CCN1CCCC(Oc2ccc(-c3c(Cl)cc(Nc4n[nH]c(N)n4)cc3C(F)(F)F)cc2)C1 (stereo not shown) [Compound 131, N*3*-{6-Chloro-4′-[1-(3,3-dimethyl-butyl)-piperidin-3-yloxy]-2-trifluoromethyl-biphenyl-4-yl}-1H-[1,2,4]triazole-3,5-diamine hydrochloride] | 7.02 µM | 0.095 µM
COc1ccc(-c2c(Cl)cc(Nc3n[nH]c(N)n3)cc2C(F)(F)F)cc1S(=O)(=O)N[C@H]1CC[C@H](O)CC1 [Compound 190, 4′-(5-amino-1H-1,2,4-triazol-3-ylamino)-2′-chloro-N-(trans-4-hydroxycyclohexyl)-4-methoxy-6′-(trifluoromethyl)biphenyl-3-sulfonamide] | 56.1 µM | 0.046 µM
Nc1nc(Nc2cc(Cl)c(-c3ccc(NC(=O)C4CCOCC4)cc3)c(Cl)c2)n[nH]1 [Compound 82, Tetrahydropyran-4-carboxylic acid-(4′-(5-amino-1H-[1,2,4]triazol-3-ylamino)-2′,6′-dichlorobiphenyl-4-yl)-amide] | > 10 µM | 0.39 µM
CN1CCN(S(=O)(=O)c2ccc(-c3c(Cl)cc(Nc4n[nH]c(N)n4)cc3C(F)(F)F)cc2)CC1 [Compound 22, N*3*-[2-Chloro-4′-(4-methyl-piperazine-1-sulfonyl)-6-trifluoromethyl-biphenyl-4-yl]-1H-[1,2,4]triazole-3,5-diamine] | 13.5 µM | 0.053 µM
CN(C)S(=O)(=O)c1ccc(-c2c(F)cc(Nc3nc(N)n[nH]3)cc2C(F)(F)F)cc1 [Compound 75, 4′-(5-Amino-2H-[1,2,4]-triazol-3-ylamino)-6′-fluoro-2′-trifluoromethyl-biphenyl-4-sulfonic acid dimethylamide] | 12.6 µM | 0.164 µM
Nc1nc(Nc2cc(Cl)c(-c3ccc4c(c3)NC(=O)C4)c(Cl)c2)n[nH]1 [Compound 256] | 8.69 µM | 0.594 µM
Nc1nc(Nc2cc(Cl)c(-c3ccc(S(=O)(=O)N4CCNCC45CC5)cc3)c(C(F)(F)F)c2)n[nH]1 [Compound 214, N3-(4′-(4,7-diazaspiro[2.5]octan-4-ylsulfonyl)-2-chloro-6-(trifluoromethyl)biphenyl-4-yl)-1H-1,2,4-triazole-3,5-diamine hydrochloride] | 3.36 µM | 0.048 µM
CC(C)(C)OC(=O)N1CC(S(=O)(=O)c2ccc(-c3c(Cl)cc(Nc4n[nH]c(N)n4)cc3C(F)(F)F)cc2)C1 [Compound 59, 3-[4′-(5-Amino-1H-[1,2,4]triazol-3-ylamino)-6′-chloro-2′-trifluoromethyl-biphenyl-4-sulfonyl]-azetidine-1-carboxylic acid tert-butyl ester] | 5.78 µM | 0.008 µM
Nc1nc(Nc2cc(Cl)c(-c3ccc(S(=O)(=O)CC4CCNCC4)cc3)c(C(F)(F)F)c2)n[nH]1 [Compound 40, N*3*-[2-Chloro-4′-(piperidin-4-ylmethanesulfonyl)-6-trifluoromethyl-biphenyl-4-yl]-1H-[1,2,4]triazole-3,5-diamine; hydrochloride] | 31.7 µM | 0.073 µM
CS(=O)(=O)c1ccc(-c2ccc(Nc3n[nH]c(N)n3)cc2C(F)(F)F)cc1 [Compound 90, N3-(4′-(methylsulfonyl)-2-(trifluoromethyl)biphenyl-4-yl)-1H-1,2,4-triazole-3,5-diamine] | 15.7 µM | 0.875 µM
CC(C)(C)OC(=O)N1CCC[C@@H]1COc1ccc(-c2c(Cl)cc(Nc3n[nH]c(N)n3)cc2Cl)cc1 [Compound 275, (R)-2-[4′-(5-Amino-1H-[1,2,4]triazol-3-ylamino)-2′,6′-dichloro-biphenyl-4-yloxymethyl]-pyrrolidine-1-carboxylic acid tert-butyl ester] | > 10 µM | 0.285 µM
CS(=O)(=O)c1ccc(-c2c(F)cc(Nc3nc(N)n[nH]3)cc2C(F)(F)F)cc1 [Compound 70, N^5-(2-Fluoro-4′-(methylsulfonyl)-6-trifluoromethylbiphenyl-4-yl)-1H-[1,2,4]-triazole-3,5-diamine] | 5.15 µM | 0.064 µM
CS(=O)(=O)c1ccc(-c2c(Cl)cc(Nc3n[nH]c(N)n3)cc2Cl)cc1C(F)(F)F [Compound 14, N*3*-(2,6-Dichloro-4′-methanesulfonyl-3′-trifluoromethyl-biphenyl-4-yl)-1H-[1,2,4]triazole-3,5-diamine] | 0.12 µM | 0.052 µM
CC(C)(C)N1Cc2ccc(-c3c(Cl)cc(Nc4n[nH]c(N)n4)cc3C(F)(F)F)cc2S1(=O)=O [Compound 10, N*3*-[4-(2-tert-Butyl-1,1-dioxo-2,3-dihydro-1H-1lambda*6*-benzo[d]isothiazol-6-yl)-3-chloro-5-trifluoromethyl-phenyl]-1H-[1,2,4]triazole-3,5-diamine] | > 10 µM | 0.015 µM
CC1(NS(=O)(=O)c2ccc(-c3c(Cl)cc(Nc4n[nH]c(N)n4)cc3C(F)(F)F)cc2)COC1 [Compound 60, 4′-(5-Amino-1H-[1,2,4]triazol-3-ylamino)-6′-chloro-2′-trifluoromethyl-biphenyl-4-sulfonic acid (3-methyl-oxetan-3-yl)-amide] | > 10 µM | 0.014 µM
COCCOc1ccc(-c2c(Cl)cc(Nc3n[nH]c(N)n3)cc2Cl)cc1 [Compound 278, N*3*-[2,6-Dichloro-4′-(2-methoxy-ethoxy)-biphenyl-4-yl]-1H-[1,2,4]triazole-3,5-diamine] | 5.31 µM | 0.264 µM
Nc1nc(Nc2cc(Cl)c(-c3ccc(S(=O)(=O)NC4COC4)cc3)c(C(F)(F)F)c2)n[nH]1 [Compound 295, 4′-(5-amino-1H-1,2,4-triazol-3-ylamino)-2′-chloro-N-(oxetan-3-yl)-6′-(trifluoromethyl)biphenyl-4-sulfonamide] | 10 µM | 0.022 µM
CNS(=O)(=O)c1ccc(-c2c(F)cc(Nc3nc(N)n[nH]3)cc2C(F)(F)F)cc1 [Compound 72, 4′-(5-Amino-2H-[1,2,4]-triazol-3-ylamino)-6′-fluoro-2′-trifluoromethyl-biphenyl-4-sulfonic acid methylamide] | > 10 µM | 0.154 µM
CC(C)(C)CCN(CCOc1ccc(-c2c(Cl)cc(Nc3n[nH]c(N)n3)cc2C(F)(F)F)cc1)CCC(C)(C)C [Compound 137, N*3*-(4′-{2-[Bis-(3,3-dimethyl-butyl-amino)-ethoxy}-6-chloro-2-trifluoromethyl-biphenyl-4-yl]-1H-[1,2,4]triazole-3,5-diamine] | > 10 µM | 0.062 µM
CN(CCOc1ccc(-c2c(Cl)cc(Nc3n[nH]c(N)n3)cc2Cl)cc1)C(=O)OC(C)(C)C [Compound 261, {2-[4′-(5-Amino-1H-[1,2,4]triazol-3-ylamino)-2′,6′-dichloro-biphenyl-4-yloxy]-ethyl}-methyl-carbamic acid tert-butyl ester] | 4.26 µM | 0.033 µM
Nc1nc(Nc2cc(Cl)c(-c3ccc(S(=O)(=O)N4CCC(O)CC4)cc3)c(C(F)(F)F)c2)n[nH]1 [Compound 194, 1-(4′-(5-amino-1H-1,2,4-triazol-3-ylamino)-2′-chloro-6′-(trifluoromethyl)biphenyl-4-ylsulfonyl)piperidin-4-ol] | 22.8 µM | 0.115 µM
Nc1nc(Nc2cc(Cl)c(-c3ccc(S(=O)(=O)CC4CCCNC4)cc3)c(C(F)(F)F)c2)n[nH]1 (stereo not shown) [Compound 25, N*3*-[2-Chloro-4′-(piperidin-3-ylmethanesulfonyl)-6-trifluoromethyl-biphenyl-4-yl]-1H-[1,2,4]triazole-3,5-diamine; hydrochloride] | > 10 µM | 0.059 µM
Nc1nc(Nc2cc(Cl)c(-c3ccc(C(=O)O)cc3)c(C(F)(F)F)c2)n[nH]1 [Compound 202, 4′-(5-amino-1H-1,2,4-triazol-3-ylamino)-2′-chloro-6′-(trifluoromethyl)biphenyl-4-carboxylic acid 2,2,2-trifluoroacetate] | > 10 µM | 1.25 µM
CC(C)(C)CCN1CCCC(S(=O)(=O)c2ccc(-c3c(Cl)cc(Nc4n[nH]c(N)n4)cc3C(F)(F)F)cc2)C1 (stereo not shown) [Compound 17, N*3*-{2-Chloro-4′-[1-(3,3-dimethyl-butyl)-piperidine-3-sulfonyl]-6-trifluoromethyl-biphenyl-4-yl}-1H-[1,2,4]triazole-3,5-diamine; hydrochloride] | 4.9 µM | 0.043 µM
CC(C)(C)OC(=O)N1CCN(S(=O)(=O)c2ccc(-c3c(Cl)cc(Nc4n[nH]c(N)n4)cc3C(F)(F)F)cc2)C2(CC2)C1 [Compound 208, tert-butyl 4-(4′-(5-amino-1H-1,2,4-triazol-3-ylamino)-2′-chloro-6′-(trifluoromethyl)biphenyl-4-ylsulfonyl)-4,7-diazaspiro[2.5]octane-7-carboxylate] | > 10 µM | 0.049 µM
CC1(NS(=O)(=O)c2ccc(-c3c(Cl)cc(Nc4n[nH]c(N)n4)cc3C(F)(F)F)cc2)CC1 [Compound 206, 4′-(5-amino-1H-1,2,4-triazol-3-ylamino)-2′-chloro-N-(1-methylcyclopropyl)-6′-(trifluoromethyl)biphenyl-4-sulfonamide] | 9.62 µM | 0.017 µM
CS(=O)(=O)Nc1cccc(-c2c(Cl)cc(Nc3n[nH]c(N)n3)cc2C(F)(F)F)c1 [Compound 290, N-(4′-(5-amino-1H-1,2,4-triazol-3-ylamino)-2′-chloro-6′-(trifluoromethyl)biphenyl-3-yl)methanesulfonamide] | 14.4 µM | 0.149 µM
CS(=O)(=O)Nc1cccc(-c2c(F)cc(Nc3nc(N)n[nH]3)cc2C(F)(F)F)c1 [Compound 243, N-[4′-(5-Amino-2H-[1,2,4]-triazol-3-ylamino)-6′-fluoro-2′-trifluoromethyl-biphenyl-3-yl]-methanesulfonamide] | > 10 µM | 0.213 µM
COc1ccc(-c2c(Cl)cc(Nc3n[nH]c(N)n3)cc2C(F)(F)F)cc1S(=O)(=O)NC1(C#N)CC1 [Compound 225] | > 10 µM | 0.031 µM
